Source: ChEMBL document CHEMBL4477215, “Specific Correction of Alternative Survival Motor Neuron 2 Splicing by Small Molecules: Discovery of a Potential Novel Medicine To Treat Spinal Muscular Atrophy” (J Med Chem, 2016)
Activity calls are given as the source filed them. The calls are words filed in the database; no cut-off is given here.

What was measured:
P-gp (ABCB1) = P-gp (ABCB1) (Homo sapiens, UniProt P08183); test: Substrate activity at human P-gp assessed as efflux ratio by cell based assay; conditions: not told
P-gp (ABCB1), sequence (P08183 whole entry): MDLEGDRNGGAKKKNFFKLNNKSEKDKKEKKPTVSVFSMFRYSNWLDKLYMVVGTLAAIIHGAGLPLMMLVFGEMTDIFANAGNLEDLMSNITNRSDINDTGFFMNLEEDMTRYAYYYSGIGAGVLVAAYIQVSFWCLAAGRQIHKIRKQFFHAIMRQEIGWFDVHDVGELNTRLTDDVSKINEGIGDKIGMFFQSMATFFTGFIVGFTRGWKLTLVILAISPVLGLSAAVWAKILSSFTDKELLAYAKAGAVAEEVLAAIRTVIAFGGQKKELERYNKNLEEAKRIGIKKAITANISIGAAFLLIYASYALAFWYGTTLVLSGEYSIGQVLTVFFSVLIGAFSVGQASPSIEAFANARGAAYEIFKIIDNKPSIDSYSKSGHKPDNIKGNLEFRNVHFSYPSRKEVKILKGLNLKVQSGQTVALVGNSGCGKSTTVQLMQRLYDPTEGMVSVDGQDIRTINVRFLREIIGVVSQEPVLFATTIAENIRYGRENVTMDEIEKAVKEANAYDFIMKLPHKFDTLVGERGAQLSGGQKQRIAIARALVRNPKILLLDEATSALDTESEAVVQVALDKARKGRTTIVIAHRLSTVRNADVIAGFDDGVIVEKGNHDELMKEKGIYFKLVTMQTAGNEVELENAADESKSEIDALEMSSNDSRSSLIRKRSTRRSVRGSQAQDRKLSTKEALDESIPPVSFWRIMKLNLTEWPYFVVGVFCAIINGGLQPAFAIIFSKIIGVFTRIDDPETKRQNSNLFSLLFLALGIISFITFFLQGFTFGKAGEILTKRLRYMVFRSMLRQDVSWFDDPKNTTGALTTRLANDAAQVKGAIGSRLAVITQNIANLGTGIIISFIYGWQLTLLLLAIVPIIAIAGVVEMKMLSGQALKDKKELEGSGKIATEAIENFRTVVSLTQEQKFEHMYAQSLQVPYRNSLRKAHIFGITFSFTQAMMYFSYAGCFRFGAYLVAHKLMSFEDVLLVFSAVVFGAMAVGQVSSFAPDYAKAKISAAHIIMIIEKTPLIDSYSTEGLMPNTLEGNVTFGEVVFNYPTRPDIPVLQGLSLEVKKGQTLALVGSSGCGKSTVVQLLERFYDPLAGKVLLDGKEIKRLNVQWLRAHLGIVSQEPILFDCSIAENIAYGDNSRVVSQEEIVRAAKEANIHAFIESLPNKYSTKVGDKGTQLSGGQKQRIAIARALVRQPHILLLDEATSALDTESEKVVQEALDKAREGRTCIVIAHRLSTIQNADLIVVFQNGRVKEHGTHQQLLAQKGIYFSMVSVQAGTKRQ

Homo sapiens [1] = organism: Homo sapiens; test: Inhibition of mRNA splicing of SMN2 exon 7 in fibroblasts derived from human SMA type 1/2/3 patient assessed as increase in SMN protein level after 48 hrs by HTRF assay
[2] = Octanol-aqueous phosphate buffer distribution coefficient, log D of the compound at pH 7.4 at 100 mM after 24 hrs by LC-MS based shake flask method; format: physicochemical
[3] = Mutagenicity in Salmonella typhimurium TA1535 assessed as increase in revertant colonies after 2 days in presence of rat liver S9 fraction by Ames test relative to control; format: toxicity; conditions: salmonella enterica subsp. enterica serovar typhimurium, s9, 48 h
[4] = Mutagenicity in Salmonella typhimurium TA97 assessed as increase in revertant colonies after 2 days in presence of rat liver S9 fraction by Ames test relative to control; format: toxicity; conditions: salmonella enterica subsp. enterica serovar typhimurium, s9, 48 h
[5] = Mutagenicity in Salmonella typhimurium TA100 assessed as increase in revertant colonies after 2 days in presence of rat liver S9 fraction by Ames test relative to control; format: toxicity; conditions: salmonella enterica subsp. enterica serovar typhimurium, s9, 48 h
Homo sapiens [6] = organism: Homo sapiens; test: Inhibition of mRNA splicing of SMN2 exon 7 in GM03813 fibroblasts derived from human SMA type 1 patient after 24 hrs by RT-qPCR analysis
[7] = Mutagenicity in Salmonella typhimurium TA98 assessed as increase in revertant colonies after 2 days in presence of rat liver S9 fraction by Ames test relative to control; format: toxicity; conditions: salmonella enterica subsp. enterica serovar typhimurium, s9, 48 h
[8] = Mutagenicity in Salmonella typhimurium TA102 assessed as increase in revertant colonies after 2 days in presence of rat liver S9 fraction by Ames test relative to control; format: toxicity; conditions: salmonella enterica subsp. enterica serovar typhimurium, s9, 48 h
[9] = Stability of the compound in human plasma; format: ADME, cell-free
NIH3T3 = test: Phototoxicity in mouse 3T3 cells in presence of UVA irradiation; format: functional, cell-based; conditions: NIH3T3, light or radiation study
[10] = Stability of the compound in pH 1 to 12 aqueous buffer; format: physicochemical
[11] = Stability in human plasma assessed as compound remaining after 5 hrs; format: ADME, cell-free; conditions: read-out: Stability

SMILES | EC1.5 (Homo sapiens [1]) | EC1.5 (Homo sapiens [6]) | Activity [3] | Activity [4] | Activity [5] | Activity [7] | Activity [8] | fold change (FC) [3] | fold change (FC) [4] | fold change (FC) [5] | fold change (FC) [7] | fold change (FC) [8] | other results
Cc1cn2nc(-c3cc(=O)n4cc(N5CCN(C)CC5)ccc4n3)cc2c(C)n1 | 170 nM | 92 nM | Non-Toxic | Non-Toxic | Non-Toxic | Non-Toxic | Non-Toxic |  |  |  |  |  | Stability [9]: Stable; IC50 (NIH3T3): 2900 nM; Stability [10]: Stable
Cc1cn2cc(-c3cc4ccc(N5CCN(C)CC5)cc4c(=O)o3)nc2c(C)n1 |  |  |  |  |  |  |  |  |  |  |  |  | IC50 (NIH3T3): 150 nM; remaining at 5 h [11]: 55%
Cc1nc2c(F)cc(-c3cc(=O)n4cc(N5CCNCC5)ccc4n3)cc2o1 | 4 nM | 1 nM |  |  |  |  |  | < 2 | < 1.5 | < 1.5 | < 2 | < 1.5 | 
CC(=O)c1cc2ccc(F)cc2c(=O)o1 |  |  |  |  |  |  |  |  |  |  |  |  | remaining at 5 h [11]: 16%
Cc1cn2cc(-c3cc(=O)n4cc(N5CCNCC5)ccc4n3)cc(F)c2n1 | 9 nM | 1 nM | Non-Toxic | Non-Toxic | Non-Toxic | Non-Toxic | Non-Toxic |  |  |  |  |  | 
CCc1nc(C)cn2nc(-c3cc(=O)n4cc(C5=CCNCC5)cc(C)c4n3)cc12 | 15 nM | 6 nM | Non-Toxic | Non-Toxic | Non-Toxic | Non-Toxic | Non-Toxic |  |  |  |  |  | 
Cc1cn2cc(-c3cc4ccc(F)cc4c(=O)o3)nc2c(C)n1 |  |  |  |  |  |  |  |  |  |  |  |  | remaining at 5 h [11]: 30%
Cc1nc2ccc(-c3cc(=O)n4cc(N5CCN(C)CC5)ccc4n3)cc2o1 | 395 nM | 148 nM |  |  |  |  |  | < 2 | < 1.5 | < 1.5 | < 2 | < 1.5 | 
CCN1CCC(c2cc(C)c3nc(-c4cc5c(C)nc(C)cn5n4)cc(=O)n3c2)CC1 | 84 nM | 30 nM | Non-Toxic | Non-Toxic | Non-Toxic | Non-Toxic | Non-Toxic |  |  |  |  |  | efflux ratio (P-gp (ABCB1)): 1.4; logD at 24 h [2]: 1.87
Cc1nc2c(F)cc(-c3cc(=O)n4cc(N5CCN(C)CC5)ccc4n3)cc2o1 | 13 nM | 3 nM |  |  |  |  |  | < 2 | < 1.5 | < 1.5 | < 2 | < 1.5 | efflux ratio (P-gp (ABCB1)): 1.1; logD at 24 h [2]: 2.46
CCN1CCN(c2ccc3cc(-c4cn5cc(C)nc(C)c5n4)c(=O)oc3c2)C[C@@H]1C |  |  |  |  |  |  |  |  |  |  |  |  | IC50 (NIH3T3): 80 nM; remaining at 5 h [11]: 93%

Continued, in another order:

EC1.5 (Homo sapiens [1]) | EC1.5 (Homo sapiens [6]) | SMILES | Activity [3] | Activity [4] | Activity [5] | Activity [7] | Activity [8] | fold change (FC) [3] | fold change (FC) [4] | fold change (FC) [5] | fold change (FC) [7] | fold change (FC) [8] | other results
46 nM |  | Cc1cn2cc(-c3cc(=O)n4cc(N5CCC(N6CCC6)CC5)ccc4n3)cc2c(C)n1 |  |  |  |  |  |  |  |  |  |  | efflux ratio (P-gp (ABCB1)): 6.6; logD at 24 h [2]: 1.53
77 nM | 57 nM | Cc1cn2nc(-c3cc(=O)n4cc(C5CCN(C)CC5)cc(C)c4n3)cc2c(C)n1 | Non-Toxic | Non-Toxic | Non-Toxic | Non-Toxic | Non-Toxic |  |  |  |  |  | efflux ratio (P-gp (ABCB1)): 1.2; logD at 24 h [2]: 1.82
760 nM | 182 nM | Cc1cn2cc(-c3cc(=O)n4cc(N5CCN(C)CC5)ccc4n3)ccc2n1 |  |  |  |  |  | < 2 | < 1.5 | < 1.5 | < 2 | < 1.5 | 
3400 nM | 582 nM | CN1CCN(c2ccc3nc(-c4ccc5nccn5c4)cc(=O)n3c2)CC1 |  |  |  |  |  | < 2 | < 1.5 | < 1.5 | < 2 | < 1.5 | 
76 nM |  | Cc1cn2cc(-c3cc(=O)n4cc(N5CCC(N6CCCC6)CC5)ccc4n3)cc(C(F)(F)F)c2n1 |  |  |  |  |  |  |  |  |  |  | efflux ratio (P-gp (ABCB1)): 8.5; logD at 24 h [2]: 1.45
820 nM | 314 nM | Cc1nc2ccc(-c3cc(=O)n4cc(N5CCN(C)CC5)ccc4n3)cn2n1 |  |  |  |  |  | < 2 | < 1.5 | < 1.5 | < 2 | < 1.5 | 
inactive | inactive | CN1CCN(c2ccc3nc(-c4ccc5c(c4)ncn5C)cc(=O)n3c2)CC1 |  |  |  |  |  | < 2 | < 1.5 | < 1.5 | < 2 | < 1.5 | 
163 nM | 40 nM | CCc1nc(C)cn2nc(-c3cc(=O)n4cc(N5CCN6CCC[C@H]6C5)ccc4n3)cc12 | Non-Toxic | Non-Toxic | Non-Toxic | Non-Toxic | Non-Toxic |  |  |  |  |  | 
